Data on 1 compound can be found in patent US6399828B1, “Preparation of amphetamines from phenylpropanolamines” (Boehringer Ingelheim Chemicals, Inc., priority 2001, dated 2002).

Series [1] is described as follows: Solubility of O-acetylnorephedrine hydrochloride in water (Experiment X).
Series [2] in a line: Stability of O-acetylnorephedrine hydrochloride stirred with water (rearrangement to N-acetylnorephedrine), HPLC analyses. Type of series: physicochemical. The method, then: Ammonium formate appears to catalyze the rearrangement of O-acetylnorephedrine hydrochloride to N-acetylnorephedrine. Three samples of O-acetylnorephedrine hydrochloride (Experiment Z recrystallized) were stirred with water for six hours respectively at room temperature, at 60° C., and at 60° C. with ammonium formate added. Samples were taken at intervals for HPLC analyses. […] At 60° C., the percentage of O-acetylnorephedrine hydrochloride decreased from 99.18 to 97.79 with the percentage of N-acetylnorephedrine increasing from 0.21% to 1.1% over a 6 hour period. […] The catalytic hydrogenation route therefore appears to be preferable to catalytic transfer hydrogenation in view of the induction period, gas evolution, and rearrangement potential.

In turn, `CC(=O)OC(c1ccccc1)C(C)N.Cl` (stereo not shown) [O-acetylnorephedrine hydrochloride, 2-Amino-1-acetoxy1-phenylpropane Hydrochloride] yielded a solubility in water in series [1] of 5.5 mL/g. Besides, the “percentage of O-acetylnorephedrine hydrochloride” value in series [2] (water with ammonium formate, 60° C., by 6 hours) is on record as 77.20%; in series [2] (water with ammonium formate, 60° C., within 30 minutes) it was 91.23%; in series [2] (water, 60° C., after 6 hours), 97.79%; in series [2] (water, 60° C., start), 99.18%; in series [2] (water, room temperature, after 6 hours) it was 99.12%; in series [2] (water, room temperature, start), 99.30%.
